Results as given in ChEMBL document CHEMBL1142969, “Venturamides A and B: antimalarial constituents of the panamanian marine Cyanobacterium Oscillatoria sp” (J Nat Prod, 2007).
pIC50: −log10 of the molar value.

How the values were obtained:
MCF7 = experiment: Growth inhibition of MCF7 cells; type: functional, cell-based; conditions: Homo sapiens
Vero = experiment: Cytotoxicity against Vero cells after 72 hrs; type: cell-based; conditions: Chlorocebus sabaeus
Leishmania donovani = experiment: Growth inhibition of Leishmania donovani MHOM/SD/00-1S after 72 hrs by amastigote assay; type: functional, organism-based
Plasmodium falciparum = experiment: Antiplasmodial activity against chloroquine-resistant Plasmodium falciparum W2 Indochina; type: functional, organism-based
Trypanosoma cruzi = experiment: Growth inhibition of Trypanosoma cruzi recombinant Tulahuen C4; type: functional, organism-based

## Cc1oc2nc1C(=O)N[C@H]([C@@H](C)O)c1nc(cs1)C(=O)N[C@H](C(C)C)c1nc(cs1)C(=O)N[C@@H]2C [VENTURAMIDE B]
MCF7
  pIC50: < 4.27
Vero
  pIC50: 4.25
Leishmania donovani
  pIC50: < 4.72
Plasmodium falciparum
  pIC50: 5.28
Trypanosoma cruzi
  pIC50: 4.80

## Cc1oc2nc1C(=O)N[C@H](C)c1nc(cs1)C(=O)N[C@H](C(C)C)c1nc(cs1)C(=O)N[C@@H]2C [VENTURAMIDE A]
MCF7
  pIC50: 4.88
Vero
  pIC50: 4.07
Leishmania donovani
  pIC50: < 4.70
Plasmodium falciparum
  pIC50: 5.09
Trypanosoma cruzi
  pIC50: 4.84
